Values quoted from earlier work in patent publication US20140271772A1, “BIODEGRADABLE SUBCUTANEOUS IMPLANTS AND METHODS OF MAKING” (priority 2013, published 2014).

oral bioavailability: 10-30%
SMILES: Nc1nc2c(ncn2COCCO)c(=O)[nH]1 [acyclovir]
toxicity to cats (cats): toxic to cats
